{
  "source": "patent US20080003244A1",
  "about": "“Inflammation and Oxidative Stress Reducing Compostion for Topical or Oral Administration” (priority 2006, published 2008)",
  "tested_on": "A549 human lung epithelial cells",
  "experiment": "H2O2 oxidative stress protection, live cell count (trypan blue dye exclusion)",
  "type": "cell-based",
  "settings": "for Live cell Number: 4 hours, A549",
  "procedure": "A549 human lung epithelial cells were seeded and treated with 2.5 mM H202 with or without lipid for 4 hours. Cells were washed and trypsinized and live cells were counted. Test Sample Composition—The extract product titled LP 0817, example 1, was mixed with water at a 30% concentration yielding a compostion of Lipid Extract 23%, Lipoic Acid 7%, Water 70%. Lipid extract (produced by alcohol extraction process cited in example 1 without lipoic acid component)—23% lipids/77% water and lipoic acid at 7% concentration tested separately. 210 mg lipoic acid was dissolved with 2.8 ml. DMSO. (93% DMSO and 7% Lipoic Acid.) This is 100% solution. This working solution was diluted to 5%, 2%, 1% to use for hydrogen peroxide study. A549 human lung epithelial cells (1.5×10^5/well in 6 well dish) were seeded and treated with 2.5 mM H202 with or without lipid for 4 hours. Cells were washed and trypsinized and live cells (trypan blue dye exclusion assay) were counted. Cell number is represented as 10^4.",
  "note": "Where “and” joins values, the source holds several entries; their conditions need not be identical. Equal entries are not always repeated.",
  "data": [
    {"smiles": "O=C(O)CCCCC1CCSS1", "note": "(stereo not shown) [Lipoic Acid 7%, lipoic acid]", "values": [
      {"measurement": "Live cell Number", "setting": "7% lipoic acid in DMSO working solution diluted to 1% + H2O2 (2.5 mM)", "value": "13 10^4 and 14 10^4"},
      {"measurement": "Live cell Number", "setting": "7% lipoic acid in DMSO working solution diluted to 2% + H2O2 (2.5 mM)", "value": "14 10^4"},
      {"measurement": "Live cell Number", "setting": "7% lipoic acid in DMSO working solution diluted to 5% + H2O2 (2.5 mM)", "value": "10 10^4 and 12 10^4"},
      {"measurement": "Protection of cells from H2O2 treatment/damage", "setting": "A549, 2.5 mM H2O2, 4 hours", "value": "Neither Lipid extract nor Lipoic acid protected the cells from H202 damage"}
    ]}
  ]
}
